A short description of data set [1]: Toxicity in C57 mouse at 40 mg/kg, po administered twice daily. The class given is organism-based. The settings on record: in vivo.
Another data set relates to Ramos. Put plainly: Antiproliferative activity against human Ramos cells assessed as inhibition of cell proliferation measured after 72 hrs by MTT assay. It counts as functional, cell-based. In general terms: Formazan colour is commonly taken as a measure of viable cells.
A further data set concerns the target Tubulin. Kind of data set: Binding affinity to tubulin (unknown origin) assessed as dissociation constant by tryptophan based binding assay. The class given is protein-complex assay, Homo sapiens.
Data set [2] addresses Focal adhesion kinase 1 (Homo sapiens) (UniProt Q05397). Kind of data set: Inhibition of FAK phosphorylation at […] residue in human SK-OV-3 cells incubated for 24 hrs by Western blot analysis. It counts as cell-based.
The nature of data set [3]: Intrinsic clearance in human liver microsomes. The class given is ADME, Microsome. (In general: Liver microsomes are vesicles of endoplasmic reticulum, rich in cytochrome P450 enzymes.)
Data set [4] is described as follows: Oral bioavailability in Sprague-Dawley rat at 5 mg/kg measured up to 24 hrs by LC/MS/MS analysis. It counts as ADME, organism-based. The settings on record: in vivo.
A short description of data set [5]: Clearance in Sprague-Dawley rat at 5 mg/kg, po measured up to 24 hrs by LC/MS/MS analysis. The class given is ADME, organism-based. The settings on record: in vivo.
The nature of data set [6]: Half life in human liver microsomes. The class given is ADME, Microsome.
Data set [7] in a line: AUC (0 to t) in Sprague-Dawley rat at 5 mg/kg, po measured up to 24 hrs by LC/MS/MS analysis. It counts as ADME, organism-based. Details: route oral, dose 5 mg/kg, time <=24. The note with it: in vivo.
Data set [8] in a line: Cmax in Sprague-Dawley rat at 5 mg/kg, po measured up to 24 hrs by LC/MS/MS analysis. The class given is ADME, organism-based. Details: route oral, dose 5 mg/kg, time <=24. The note with it: in vivo.
For data set [9], the system named is SK-OV-3. Kind of data set: Antiproliferative activity against human SK-OV-3 cells assessed as inhibition of cell proliferation measured after 72 hrs by MTT assay. It counts as functional, cell-based. The note with it: SK-OV-3, 72 h.
Data set [10] is described as follows: Half life in Sprague-Dawley rat at 5 mg/kg, po measured up to 24 hrs by LC/MS/MS analysis. The note with it: in vivo. It counts as ADME, organism-based.
A short description of data set [11]: Tmax in Sprague-Dawley rat at 5 mg/kg, po measured up to 24 hrs by LC/MS/MS analysis. The class given is ADME, organism-based. The note with it: in vivo.
Data set [12] addresses Proto-oncogene tyrosine-protein kinase Src (Homo sapiens) (UniProt P12931). Kind of data set: Inhibition of Src kinase phosphorylation at Tyr416/419 residue in human SK-OV-3 cells incubated for 24 hrs by Western blot analysis. It counts as cell-based. For orientation: A western blot detects proteins with antibodies after separation by electrophoresis.
For another data set, the system named is K562. Kind of data set: Antiproliferative activity against human K562 cells assessed as inhibition of cell proliferation measured after 72 hrs by MTT assay. It counts as functional, cell-based. The settings on record: K562, 72 h.
A short description of data set [13]: Antitumor activity against mouse C26 cells xenografted in BALB/c mouse assessed as tumor growth inhibition at 10 mg/kg, po measured every 2 days for 10 days by vernier caliper analysis relative to control. The class given is functional. The note with it: 240 h, time 10 day, read-out: TGI.
The nature of data set [14]: Toxicity in BALB/c mouse xenografted with mouse C26 cells assessed as death at 10 mg/kg, po measured every 2 days for 10 days. The settings on record: in vivo, 240 h, time 10 day. The class given is organism-based.
A short description of data set [15]: Toxicity in C57 mouse at 10 mg/kg, po administered twice daily. It counts as organism-based. The note with it: in vivo.
Data set [16] deals with SK-OV-3. Kind of data set: Induction of cell cycle arrest in human SK-OV-3 cells assessed as accumulation of cells at S phase at 100 nM incubated for 24 hrs by PI staining based flow cytometry analysis (reference value: 21.4 %). It counts as functional.
Data set [17] deals with SK-OV-3. Put plainly: Induction of cell cycle arrest in human SK-OV-3 cells assessed as accumulation of cells at G2/M phase at 10 nM incubated for 24 hrs by PI staining based flow cytometry analysis (reference value: 28.94%). The class given is functional.
Data set [18] deals with SK-OV-3. Kind of data set: Induction of cell cycle arrest in human SK-OV-3 cells assessed as accumulation of cells at G0/G1 phase at 10 nM incubated for 24 hrs by PI staining based flow cytometry analysis (reference value: 49.60 %). It counts as functional.
Data set [19] relates to SK-OV-3. Kind of data set: Induction of cell cycle arrest in human SK-OV-3 cells assessed as accumulation of cells at S phase at 20 nM incubated for 24 hrs by PI staining based flow cytometry analysis (reference value: 21.4 %). It counts as functional.
Data set [20] concerns SK-OV-3. Put plainly: Induction of cell cycle arrest in human SK-OV-3 cells assessed as accumulation of cells at G2/M phase at 100 nM incubated for 24 hrs by PI staining based flow cytometry analysis (reference value: 28.94%). It counts as functional.
Data set [21] deals with SK-OV-3. Put plainly: Induction of cell cycle arrest in human SK-OV-3 cells assessed as accumulation of cells at S phase at 10 nM incubated for 24 hrs by PI staining based flow cytometry analysis (reference value: 21.4 %). It counts as functional.
Data set [22] relates to SK-OV-3. Kind of data set: Induction of cell cycle arrest in human SK-OV-3 cells assessed as accumulation of cells at G0/G1 phase at 100 nM incubated for 24 hrs by PI staining based flow cytometry analysis (reference value: 49.60 %). It counts as functional.
Data set [23] deals with SK-OV-3. Kind of data set: Induction of cell cycle arrest in human SK-OV-3 cells assessed as accumulation of cells at G0/G1 phase at 20 nM incubated for 24 hrs by PI staining based flow cytometry analysis (reference value: 49.60 %). The class given is functional.
Data set [24] can be described thus: Toxicity in mouse xenografted with human SK-OV-3 cells assessed as effect on body weight at 10 mg/kg, po administered for 30 days. The class given is organism-based. The settings on record: in vivo, 720 h, time 30 day.
Data set [25] can be described thus: Antitumor activity against human SK-OV-3 cells xenografted in nude mouse assessed as tumor growth inhibition at 10 mg/kg, po measured every 3 days for 1 month by vernier caliper analysis relative to control. The class given is functional. The settings on record: SK-OV-3, po, 730 h, time 1 months, read-out: TGI.
The test system of data set [26] is SK-OV-3. Kind of data set: Induction of cell cycle arrest in human SK-OV-3 cells assessed as accumulation of cells at G2/M phase at 20 nM incubated for 24 hrs by PI staining based flow cytometry analysis (reference value: 28.94%). The class given is functional.

Proto-oncogene tyrosine-protein kinase Src (Homo sapiens), sequence (P12931 2-536 limits assumed): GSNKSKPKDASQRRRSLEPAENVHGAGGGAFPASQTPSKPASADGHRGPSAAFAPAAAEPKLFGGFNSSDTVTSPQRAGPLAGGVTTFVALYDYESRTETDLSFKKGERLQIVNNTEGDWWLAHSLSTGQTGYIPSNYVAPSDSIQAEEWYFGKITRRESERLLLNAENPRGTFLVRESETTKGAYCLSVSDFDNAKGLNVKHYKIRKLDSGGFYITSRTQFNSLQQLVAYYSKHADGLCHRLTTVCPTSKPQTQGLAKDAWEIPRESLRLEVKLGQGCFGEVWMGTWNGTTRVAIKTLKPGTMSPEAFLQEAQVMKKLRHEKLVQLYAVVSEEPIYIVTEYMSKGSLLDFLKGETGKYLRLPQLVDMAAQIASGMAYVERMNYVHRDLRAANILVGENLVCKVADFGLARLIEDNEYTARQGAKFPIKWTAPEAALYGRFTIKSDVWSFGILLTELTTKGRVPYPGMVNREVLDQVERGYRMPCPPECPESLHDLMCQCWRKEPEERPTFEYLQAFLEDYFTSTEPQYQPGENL
Focal adhesion kinase 1 (Homo sapiens), sequence (Q05397 2-1052 limits assumed): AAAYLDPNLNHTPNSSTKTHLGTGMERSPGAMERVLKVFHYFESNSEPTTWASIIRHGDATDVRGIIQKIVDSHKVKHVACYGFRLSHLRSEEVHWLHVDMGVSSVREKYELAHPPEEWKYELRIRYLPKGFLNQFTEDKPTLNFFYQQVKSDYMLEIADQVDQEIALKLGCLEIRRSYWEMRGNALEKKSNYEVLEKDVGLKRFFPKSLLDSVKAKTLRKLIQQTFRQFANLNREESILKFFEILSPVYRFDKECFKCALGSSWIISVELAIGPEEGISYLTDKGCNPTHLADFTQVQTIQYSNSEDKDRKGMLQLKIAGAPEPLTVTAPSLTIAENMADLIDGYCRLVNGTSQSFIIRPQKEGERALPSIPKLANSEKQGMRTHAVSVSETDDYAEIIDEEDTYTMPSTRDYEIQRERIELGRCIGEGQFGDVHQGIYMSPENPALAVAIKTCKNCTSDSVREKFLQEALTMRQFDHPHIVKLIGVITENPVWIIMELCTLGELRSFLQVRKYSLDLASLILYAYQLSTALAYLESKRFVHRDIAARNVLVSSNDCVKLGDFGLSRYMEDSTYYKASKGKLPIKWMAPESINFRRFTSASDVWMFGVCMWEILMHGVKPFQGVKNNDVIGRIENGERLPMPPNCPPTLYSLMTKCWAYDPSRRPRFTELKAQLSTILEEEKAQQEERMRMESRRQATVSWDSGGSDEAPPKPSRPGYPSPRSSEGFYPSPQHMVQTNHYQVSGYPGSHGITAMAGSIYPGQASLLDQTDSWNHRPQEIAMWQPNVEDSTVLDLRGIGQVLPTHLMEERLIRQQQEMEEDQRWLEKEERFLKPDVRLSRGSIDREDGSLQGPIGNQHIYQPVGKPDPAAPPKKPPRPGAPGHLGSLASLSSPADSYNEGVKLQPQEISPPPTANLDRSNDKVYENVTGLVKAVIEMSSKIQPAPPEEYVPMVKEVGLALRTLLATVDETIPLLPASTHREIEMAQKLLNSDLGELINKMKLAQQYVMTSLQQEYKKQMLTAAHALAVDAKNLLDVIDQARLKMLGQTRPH

By IC50 is commonly meant the concentration at which inhibition is half-maximal. Broadly, the Kd is the equilibrium constant for the complex coming apart. The bioavailability is dose-corrected exposure relative to a reference, in per cent. Usually CL/F stands for the apparent clearance, not corrected for the fraction that reaches the circulation. In general, half-life refers to how long it takes for the measured level to halve. Read a high half-life as slow decline. The AUC(0-t) is exposure summed from dosing to a finite time, without extrapolation to infinity. What is called Cmax is the maximum level reached in the sampled fluid or tissue. What is called Tmax is the time at which the peak concentration occurs. In the case of `O=C(Cc1ccc(-c2ccc(OCCN3CCN(C(=O)C4CCC4)CC3)cc2)cn1)NCc1ccccc1`, in data set [1], the Activity result is listed as “Non-Toxic”. Also, the IC50 was 1.5 nM in the data set with Ramos, 0.59 nM in the data set on SK-OV-3 [9] and 2.3 nM in the data set with K562. For the same molecule, the Kd on Tubulin is 630 nM. Moreover, the inhibition entry in data set [2] and in data set [12] was “Dose-Dependent Effect” in each case. In data set [3], this molecule came in with a CLH of 67.4 mL·min/g. Moreover, the bioavailability in data set [4] was 13.3%. In addition, in data set [5], the CL/F is 209 mL/min/kg. Besides, the half-life in data set [6] was 20.6 min; in data set [10] it was 139 min. In [7], this molecule displayed an AUC(0-t) at 24 h of 383 ng·h/mL. Also, in data set [8], the peak level (Cmax) was 484 ng/mL. Also, the time to peak (Tmax) in [11] came out at 8.4 min. The inhibition in vivo at 10 mg/kg in [13] came to 32%.

Consider `O=C(Cc1ccc(-c2ccc(OCCN3CCN(C(=O)C4CC4)CC3)cc2)cn1)NCc1ccccc1`, for which the results for the Activity result in [1] and in data set [14] were “Non-Toxic” and “Toxic”, respectively. The values for the half-maximal inhibitory concentration (IC50) in the data set with Ramos, with SK-OV-3 [9] and with K562 were 1.3 nM, 1.1 nM and 2.5 nM, respectively. The equilibrium dissociation constant (Kd) on Tubulin turned out to be 290 nM. Further, the inhibition result in data set [2] and in [12] was “Dose-Dependent Effect” each time. The CLH in [3] was determined as 36 mL·min/g. This molecule also yielded a bioavailability in [4] of 52.2%. This molecule also had a CL/F in data set [5] of 55.7 mL/min/kg. Further, the values for the half-life in [6] and in [10] were 38.5 min and 158 min, respectively. Besides, the AUC(0-t) at 24 h in [7] stood at 1620 ng·h/mL. This molecule came in with a maximum concentration (Cmax) in data set [8] of 593 ng/mL. In [11], the time of peak concentration (Tmax) was 49.8 min. Further, the inhibition in vivo at 10 mg/kg in data set [13] was 73%.

With `O=C(Cc1ccc(-c2ccc(OCCN3CCN(C(=O)[C@@H]4C[C@@H]4F)CC3)cc2)cn1)NCc1ccccc1`, the IC50 in the data set on Ramos is 1.6 nM; in the data set with SK-OV-3 [9] it was 0.6 nM; in the data set with K562, 1.4 nM. Further, the Kd on Tubulin was 300 nM. Besides, the inhibition result in [2] and in data set [12] was “Dose-Dependent Effect” in each case. The molecule further registered a CLH in [3] of 26.6 mL·min/g. Further, the bioavailability in [4] was 79.9%. Also, the CL/F in data set [5] was 25.8 mL/min/kg. Moreover, the half-life in [6] was 52.1 min; in data set [10], 305 min. In [7], this molecule came in with an AUC(0-t) at 24 h of 4180 ng·h/mL. This molecule also had a Cmax in data set [8] of 742 ng/mL. In data set [11], the time of peak concentration (Tmax) worked out at 42 min. In addition, the Activity entry in [15] is listed as “Toxic”.

As to `O=C(Cc1ccc(-c2ccc(OCCN3CCOCC3)cc2)cn1)NCc1ccccc1` [TIRBANIBULIN], the Activity is 20.2% in the data set on SK-OV-3 [16]; 34.01% in the data set with SK-OV-3 [17]; 46.66% with SK-OV-3 [18]; 19.58% with SK-OV-3 [19]; 64.41% in the data set with SK-OV-3 [20]; 19.33% with SK-OV-3 [21]. For the same molecule, the Activity is recorded as 15.39% with SK-OV-3 [22], 40.07% with SK-OV-3 [23], “Non-Toxic” in data set [24] and 40.35% with SK-OV-3 [26]. For the same molecule, the IC50 with Ramos is 15.7 nM; in the data set on SK-OV-3 [9] it was 6.8 nM; in the data set with K562, 18.2 nM. On Tubulin, the Kd stood at 1110 nM. This molecule also registered a CLH in data set [3] of 31.4 mL·min/g. The bioavailability in [4] was 34.9%. In data set [5], this molecule had a CL/F of 88.5 mL/min/kg. Further, the figures for the half-life in [6] and in [10] were 44.1 min and 740 min, respectively. Also, the exposure AUC(0-t) at 24 h in data set [7] is 840 ng·h/mL. This molecule also displayed a Cmax in data set [8] of 431 ng/mL. Besides, the Tmax in [11] was 15 min. For the same molecule, the inhibition in vivo at 10 mg/kg in [25] amounted to 42%; in data set [13], 51%.
